Assay results taken from patent publication US12576051B2, “Methods and composition for treating respiratory obstructive diseases” (The Regents of the University of California, priority 2019, dated 2026).

Key:
[1] = tested on: porcine gastric mucin extract (50 kDa band matched to Muc5ac mucin); assay: Mucolytic activity on gastric mucin (electrophoresis, Coomassie stain); type: biochemical; details: summary of FIG. 7 and FIG. 8
Protocol: FIG. 7 presents the effects of cysteamine bitartrate and compound 646 on porcine gastric mucin extract. One hundred microliters of gastric mucin extract (5 mg/mL) was incubated with and without cysteamine bitartrate and compound 646 separately, at 37° C. for 60 minutes.
Gastric Mucin extract solution: Mucin was prepared as stock solution of 5 mg/mL in water, in NaCl Ringer (150 mM Na^+, 4.6 mM K^+, 1 mM Ca^2+, 1 mM Mg^2+, 150 mM Cl^−, 2.5 mM PO4^x− and 10 mM glucose) pH 7.2, and in HCO3-Ringer solution (150 mM Na^+, 4.6 mM K^+, 1 mM Ca^2+, 1 mM Mg^2+, […] HCO3^−, 2.5 mM PO4^x− and 10 mM glucose) pH 8.
Mucolytic activity on gastric mucin. One hundred microliters of mucin solution were incubated with Cysteamine bitartrate or compound 646 at final concentrations from 0 to 2 mM as indicated in the text. Mixture was incubated at 37° C. for 0-1 hr. Mucolytic activity was ended with 30 microliters of SDS-sample buffer solution. Forty-five microliters of each sample/well were separated in an electrophoresis gel 4-12% Tris-Glycine. After electrophoresis gels were stained with Coomassie Blue solution.
In vitro mucolytic activity of cysteamine bitartrate and compound 646. To evaluate the mucolytic activity of cysteamine bitartrate and 2-aminoethane-1-d-1-thiol hydrochloride (Compound 646), gastric mucin extract was used as a substrate that was treated with 200 and 400 μM of cysteamine bitartrate or Compound 646 respectively.
Mass spectrometry analysis of the isolated 50 kDa protein band. Muc5ac and Muc6 mucins are two major secretory mucins found in the stomach. In order identify which of these mucins were part of the 50 kDa band, mass spectrometry was utilized. Mass spectrometry analysis of the 50 kDa protein band identified 17 unique peptides that matched with porcine Muc5ac mucin.

[2] = tested on: mucin released over the luminal airway surface; assay: Mucin clearance on surface airway epithelium of isolated porcine airways (histology); details: 200 μM, 5 min, after bicarbonate (25 mM) and PGE2 (10 μM) 5 min at 37° C.
Protocol: Cysteamine facilitates clearance of mucin released over the luminal airway surface. Porcine airways were incubated in the presence of buffer containing bicarbonate (25 mM) and PGE2 (10 μM) for 5 min at 37° C. Thereafter, airways were subsequently incubated in the presence or absence of Cysteamine (200 μM) for an additional 5 min. Airways, were harvested and processed for histological analysis.
(§1) Biological specimens: Isolated native porcine airways were used as experimental model. Sections of open trachea tissue (approx. 2 cm^2) were carefully rinsed and cover small volume of NaHCO3-Ringer solution. Mucus secretion was stimulated with Prostaglandin E2 (PGE2, 10−6 M). Secreted mucus over the dissected open airways was carefully collected, aliquoted and immediately frozen at −80° C.

[3] = tested on: mucin extracted from porcine guts; assay: Effects of cysteamine at nM concentrations on mucin extracted from porcine guts; type: biochemical; details: FIG. 11
Description: FIG. 11 showing the effects of cysteamine at nM concentrations, on mucin extracted from porcine guts.

[4] = tested on: Porcine mucin 15% (W/V); assay: Mucolytic activity: mucin viscosity by volume displaced through Pasteur pipette; type: biochemical; details: 10 mg/mL, Ringer buffer with bicarbonate (25 mM), 4 hours at 37° C.; versus without cysteamine
Protocol: Porcine mucin 15% (W/V) was incubated in Ringer buffer solution containing bicarbonate (25 mM) in the presence (+) or absence (−) of Cysteamine bitartrate (10 mg/mL), for 4 h at 37° C. Thereafter, equal volume of mucin solution from each condition were aspirated separately in a sterile Pasteur pipette. Changes in mucin viscosity was measured by the rapidity of the volume displaced toward the bottom of the pipette, as indicated in each panel (0-12 seconds). […] Porcine mucin 15% (W/V) was incubated in Ringer buffer solution containing bicarbonate (25 mM) in the presence (+) or absence (−) of cysteamine bitartrate (10 mg/mL), for 4 hours at 37° C. Changes in mucin viscosity was determined by the percentage of volume displaced as a function of time (0-12 seconds) through a vertical sterile Pasteur pipette tip at room temperature.

[5] = tested on: porcine airway; assay: Ex vivo porcine airway models (summary statement)
Description: Abnormal mucus accumulation in airways has deleterious, and fatal consequence in patients suffering from respiratory obstructive diseases, such as cystic fibrosis (CF), COPD and asthma. Therefore, there is a need for therapies aimed at decreasing mucus accumulation to facilitate airway mucus clearance.

[6] = tested on: porcine airway mucus; assay: Mucolytic activity on porcine airway mucin (electrophoresis, Coomassie stain); type: biochemical; details: summary of FIG. 10
Protocol: FIG. 9 presents the effect of compound 646 on porcine airway mucus. Mucus collected from porcine upper airways diluted in NaHCO3-Ringer, was treated with different concentrations of compound 646 (0, 0.25. 0.5 and 1 mM), for 60 minutes at 37° C. In lane 1, representative protein pattern after electrophoresis protein separation of untreated porcine airway mucus (40 μg/well).
Airway mucus supernatant diluted in NaHCO3-Ringer was treated with or without cysteamine bitartrate under basic and acidic conditions at 37° C. for 60 minutes.
as §1
Mucolytic activity on porcine airway mucin: One hundred microliters of collected porcine airway supernatant was incubated with Cysteamine bitartrate or compound 646 at final concentrations from 0 to 2 mM as indicated in the text. Mucolytic activity was ended with 30 microliters of SDS-sample buffer solution. 45 microliters of each sample/well were separated in an electrophoresis gel 4-12% Tris-Glycine. After electrophoresis gels were stained with Coomassie Blue solution.
Mucolytic activity of synthetic compound 646. Respiratory airway mucus contained Muc5aC and Muc5B mucins. In order to determine whether compound 646 be used as a mucolytic agent for respiratory airways, supernatant of mucus collected from porcine airways was treated with compound 646 at different concentration (0-1 mM) for 1 h at 37° C.
Mucolytic activity of cysteamine bitartrate under basic and acidic conditions. To validate whether mucolytic activity of cysteamine bitartrate depends on changes of pH, airway mucus supernatant was incubated for 1 h at 37° C. with or without 2 mM cysteamine bitartrate diluted in NaHCO3. An additional airway mucus sample was treated with cysteamine bitartrate and supplemented with 4 μL of 0.1 N of acetic solution pH 4.5. […] The reduction, however, was approximately half of the decrease seen under acidic conditions.

In the case of `NCCS` [Cysteamine bitartrate, reference compound], the “anti-mucin effect against gastric mucin, Muc5ac in particular” value [1] is reported as “anti-mucin effect against gastric mucin”, the “mucin clearance on airway surface epithelium” value [2] is reported as “cleared from the luminal surface” and the “dose dependence of mucolytic effect” value [3] is reported as “dose dependent”. The “displaced volume percentage of porcine mucin as a function of time (0-12 seconds)” value [4] was “noticeably reduced”, the “accumulation of viscous mucus and mucociliary clearance” value [5] was “prevented accumulation of viscous mucus and improves mucociliary clearance” and the “influence of acidic conditions on mucolytic effect” value [6] was “enhanced when acidic conditions are used”.
